According to US20200317660A1, “Quinazolinone Compound and Application Thereof” (LUOXIN PHARMACEUTICAL (SHANGHAI) CO., LTD., priority 2017, published 2020):
Read-outs that look alike come from different tables or passages of the source.

What was measured:
PI3Kβ = target: T1, PI3Kβ (Homo sapiens, UniProt P42338); assay: In vitro test of enzyme activity (ADP-Glo lipokinase), PI3K beta; assay type: biochemical; conditions: 40 μM ATP, 50 μM PIP2:3PS, 120 min
T1 construct: purchased Promega V1751
Experimental: (§1) 1. In Vitro Test of Enzyme Activity
(§2) The lipokinase reaction was carried out under the conditions of a suitable substrate and ATP, followed by two steps to detect the kinase activity with the ADP-Glo™ kit. The first step was terminating the kinase reaction, wherein the remaining ATP was completely removed and only ADP was left; the second step was adding kinase detection reagents to convert ADP to ATP, accompanied by luciferin/luciferase reaction. Finally, the output value of fluorescence value was converted into kinase activity.
(§3) Experimental materials and equipments:
(§4) 2. Kit: ADP-Glo™ Lipokinase and PIP2:3PS Kit (Promega # V1792)
(§5) The kit contains: 1 mM PIP2:3PS, 10× lipid dilution buffer, 1 M magnesium chloride, 10 mM ATP, 10 mM ADP, ADP-Glo reagent, detection buffer and detection substrate.
(§6) 3. Reaction plate: OptiPlate-384, white and transparent (PerkinElmer #6007299).
(§7) 1. 10× reaction buffer: 500 mM HEPES, pH 7.5, 500 mM NaCl, 9 mM MgCl2; BSA: 10% stock solution, homemade.
(§8) 2. Final test system conditions: 1× reaction system: 50 mM HEPES, 50 mM NaCl, 3 mM MgCl2, 0.01% BSA (freshly prepared on the day of the experiment), 1% DMSO (v/v)+/−compound
(§9) 3. Reaction system: 3 μL mixture of the enzyme and the substrate (1:1)+2 μL ATP/MgCl2 mixture+5 μL ADP-Glo reagent+10 μL detection reagent.
(§10) The detailed experimental procedures are as follows:
(§11) 1. Compound dilution: 50 nL 100×compound/DMSO was transferred to the test well plate with Echo. • For PI3Kα, the compound was diluted three-fold from the highest concentration of 0.111 mM for a total of 10 concentrations. • For PI3Kβ/PI3Kδ/PI3Kγ, the compound was three-fold diluted from the highest concentration of 1.11 mM for a total of 10 concentrations.
(§12) (1) The compound to be tested was prepared and 50 nL of 100 plus compound solution or DMSO was added to the corresponding well plate.
(§13) (2) 3.33 plate reaction buffer was prepared.
(§14) (3) 3.33 solution PIP2:3PS was prepared, PIP2:3PS was thawed for at least 1 minute before use.
(§15) (4) 2.5 mM containing 5.25 mM MgCl2 was prepared.
(§16) (5) 3.33 PI3Kα/PI3Kβ/PI3Kδ/PI3Kγ solution was prepared.
(§17) (6) The lipokinase solution and the PIP2:3PS solution were mixed in a volume ratio of 1:1.
(§18) (7) 3.33: lipokinase buffer and PIP2:3PS solution were mixed in a volume ratio of 1:1.
(§19) (8) 3 μL of buffer solution and PIP2:3PS were added to the first and the second columns of the well plate.
(§20) (9) 3 μL of the mixed solution of the enzyme and PIP2:3PS was added to the wells except the first and the second columns, centrifuged for 10 seconds (1000 rpm) and incubated at 23° C. for 20 minutes.
(§21) (10) 2 μL […] was added and well was shaken.
(§22) (11) The well plate was covered and shaken for about 30 s, then the well plate was incubated at 23° C. for 2 hours.
(§23) (12) 5 μL of ADP-Glo reagent containing 10 mM MgCl2 was added.
(§24) (13) The well plate was centrifuged at 1000 rpm for 10 seconds, and the well plate was then covered, shaken for about 30 seconds, and incubated at 23° C. for 60 minutes.
(§25) (14) 10 μL kinase detection reagent was added.
(§26) (15) The well plate was centrifuged at 1000 rpm for 10 seconds, and then incubated at 23° C. for 60 minutes.
(§27) (16) The fluorescence value was measured on the Envision instrument.

PI3Kδ = target: T2, PI3Kδ (Homo sapiens, UniProt O00329); assay: In vitro test of enzyme activity (ADP-Glo lipokinase), PI3K delta; assay type: biochemical; conditions: 40 μM ATP, 50 μM PIP2:3PS, 120 min
T2 construct: purchased Millipore 14-604-K
Experimental: as §1, §2, §3, §4, §5, §6, §7, §8, §9, §10, §11, §12, §13, §14, §15, §16, §17, §18, §19, §20, §21, §22, §23, §24, §25, §26, §27

PI3Kα = target: T3, PI3Kα (Homo sapiens, UniProt P42336); assay: In vitro test of enzyme activity (ADP-Glo lipokinase), PI3K alpha; assay type: biochemical; conditions: 40 μM ATP, 50 μM PIP2:3PS, 120 min
T3 construct: purchased Millipore 14-602-K
Experimental: as §1, §2, §3, §4, §5, §6, §7, §8, §9, §10, §11, §12, §13, §14, §15, §16, §17, §18, §19, §20, §21, §22, §23, §24, §25, §26, §27

PI3Kγ = target: T4, PI3Kγ (Homo sapiens, UniProt P48736); assay: In vitro test of enzyme activity (ADP-Glo lipokinase), PI3K gamma; assay type: biochemical; conditions: 25 μM ATP, 50 μM PIP2:3PS, 120 min
T4 construct: purchased Millipore 14-558-K
Experimental: as §1, §2, §3, §4, §5, §6, §7, §8, §9, §10, §11, §12, §13, §14, §15, §16, §17, §18, §19, §20, §21, §22, §23, §24, §25, §26, §27

[1] = test system: phosphorylation of PI3K downstream protein Akt in MCF7 cells; assay: In vitro test of cells activity: ELISA of Akt phosphorylation in MCF7 cells; assay type: cell-based; conditions: 2 h compound, insulin 10 μg/mL stimulation, pAkt ELISA, read-out: MCF7 Cell IC50
Experimental: 2. In vitro test of cells activity
By the method of ELISA, the inhibition level of the test compound on the phosphorylation of PI3K downstream protein Akt in the signaling pathway was determined in MCF7 cells line to reflect the cells activity of the compound.
Cell culture medium: complete cell culture medium (RPMI 1640+10% serum+1% L-glutamine+1% double antibody)
Serum-free medium (without serum, RPMI 1640+1% L-glutamine+1% double antibody)
The detailed procedures areas follows:
(1) MCF7 cells (ATCC® HTB-22™) were inoculated into a 96-well plate at 100 μL of cell complete medium per well (2.5*10^4 cells per well), and the cells were incubated at 37° C. and 5% CO2 for 24 hours.
(2) The complete cell culture medium was replaced with 100 μL of serum-free medium, and incubated for starvation overnight.
(3) The compound was prepared (The initial concentration of the compound is 1 mM, which was subjected to a three-fold dilution in 10 concentrations, and the compound of each concentration was then diluted 100-fold with serum-free medium). 25 μL of the diluted compound was added to the cells orifice plate.
(4) The cells were incubated at 37° C. and 5% CO2 for 2 hours.
(5) The cells in the well plate were stimulated with 10 μg/mL insulin (Sigma # I9278-5 mL), incubated for 30 minutes, and then centrifuged at 1000 rpm for 5 minutes at room temperature.
(6) 250 μL of 1× balanced salt solution (Invitrogen, #14065-056, 4° C., containing 1 mM/L Na3VO4) was added to each well to wash the cells once.
(7) 100 μL of lysis buffer (trimethylolaminomethane hydrochloride, Invitrogen, #15567-1000 ml) was added to each well, shaken at 4° C. for 60 minutes, and then centrifuged at 4000 rpm for 4 minutes.
(8) The following procedures were carried out according to the instructions of ELISA kit (TGR BioSciences # EKT002).

T1 sequence (P42338 whole entry): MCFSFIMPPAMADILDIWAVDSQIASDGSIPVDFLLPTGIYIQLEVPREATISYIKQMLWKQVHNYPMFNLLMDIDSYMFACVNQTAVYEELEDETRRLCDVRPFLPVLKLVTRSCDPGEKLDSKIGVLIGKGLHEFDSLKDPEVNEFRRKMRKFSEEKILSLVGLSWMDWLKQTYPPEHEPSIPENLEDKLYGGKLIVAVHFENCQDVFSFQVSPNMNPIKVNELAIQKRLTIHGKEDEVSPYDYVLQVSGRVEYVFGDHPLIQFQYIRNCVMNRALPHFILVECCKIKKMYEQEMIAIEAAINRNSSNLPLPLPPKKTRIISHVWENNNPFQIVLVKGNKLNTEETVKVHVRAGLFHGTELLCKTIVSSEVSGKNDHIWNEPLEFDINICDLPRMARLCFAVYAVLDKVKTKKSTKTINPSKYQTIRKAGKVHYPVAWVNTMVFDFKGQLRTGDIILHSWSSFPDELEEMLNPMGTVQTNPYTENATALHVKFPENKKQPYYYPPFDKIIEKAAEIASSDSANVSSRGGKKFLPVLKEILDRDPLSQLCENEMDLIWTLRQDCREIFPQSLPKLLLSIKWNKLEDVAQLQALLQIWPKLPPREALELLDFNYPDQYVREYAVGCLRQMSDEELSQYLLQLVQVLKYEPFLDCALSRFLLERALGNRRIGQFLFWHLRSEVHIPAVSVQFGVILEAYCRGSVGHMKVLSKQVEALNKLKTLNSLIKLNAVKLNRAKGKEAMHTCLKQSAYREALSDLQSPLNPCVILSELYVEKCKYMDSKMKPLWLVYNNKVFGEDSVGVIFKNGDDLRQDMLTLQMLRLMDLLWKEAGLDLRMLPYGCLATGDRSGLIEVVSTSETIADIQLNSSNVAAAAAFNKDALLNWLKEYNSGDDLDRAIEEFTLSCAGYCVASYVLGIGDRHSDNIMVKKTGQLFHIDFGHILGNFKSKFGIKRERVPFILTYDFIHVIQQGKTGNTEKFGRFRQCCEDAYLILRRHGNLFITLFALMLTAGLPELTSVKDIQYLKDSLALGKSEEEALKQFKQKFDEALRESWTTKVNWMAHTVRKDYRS
T1 sequence (P27986 whole entry partner): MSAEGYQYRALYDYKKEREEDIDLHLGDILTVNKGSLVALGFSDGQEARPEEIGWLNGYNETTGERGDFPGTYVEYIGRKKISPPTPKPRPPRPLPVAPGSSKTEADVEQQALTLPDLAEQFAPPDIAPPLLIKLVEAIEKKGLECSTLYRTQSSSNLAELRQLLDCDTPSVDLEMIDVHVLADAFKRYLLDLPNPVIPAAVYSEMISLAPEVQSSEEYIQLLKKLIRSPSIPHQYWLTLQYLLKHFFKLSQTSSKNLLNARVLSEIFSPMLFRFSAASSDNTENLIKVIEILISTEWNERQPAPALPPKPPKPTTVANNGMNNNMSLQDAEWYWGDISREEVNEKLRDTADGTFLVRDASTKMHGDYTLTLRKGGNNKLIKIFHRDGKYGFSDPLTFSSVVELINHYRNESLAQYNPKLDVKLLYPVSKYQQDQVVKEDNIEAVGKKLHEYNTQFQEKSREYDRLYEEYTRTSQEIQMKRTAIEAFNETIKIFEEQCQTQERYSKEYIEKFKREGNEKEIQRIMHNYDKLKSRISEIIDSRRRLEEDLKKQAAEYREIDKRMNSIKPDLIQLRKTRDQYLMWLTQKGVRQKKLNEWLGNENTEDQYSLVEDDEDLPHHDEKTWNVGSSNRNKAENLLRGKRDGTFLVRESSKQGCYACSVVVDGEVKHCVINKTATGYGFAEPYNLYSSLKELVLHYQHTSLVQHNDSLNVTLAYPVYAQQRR
T2 sequence (O00329 whole entry): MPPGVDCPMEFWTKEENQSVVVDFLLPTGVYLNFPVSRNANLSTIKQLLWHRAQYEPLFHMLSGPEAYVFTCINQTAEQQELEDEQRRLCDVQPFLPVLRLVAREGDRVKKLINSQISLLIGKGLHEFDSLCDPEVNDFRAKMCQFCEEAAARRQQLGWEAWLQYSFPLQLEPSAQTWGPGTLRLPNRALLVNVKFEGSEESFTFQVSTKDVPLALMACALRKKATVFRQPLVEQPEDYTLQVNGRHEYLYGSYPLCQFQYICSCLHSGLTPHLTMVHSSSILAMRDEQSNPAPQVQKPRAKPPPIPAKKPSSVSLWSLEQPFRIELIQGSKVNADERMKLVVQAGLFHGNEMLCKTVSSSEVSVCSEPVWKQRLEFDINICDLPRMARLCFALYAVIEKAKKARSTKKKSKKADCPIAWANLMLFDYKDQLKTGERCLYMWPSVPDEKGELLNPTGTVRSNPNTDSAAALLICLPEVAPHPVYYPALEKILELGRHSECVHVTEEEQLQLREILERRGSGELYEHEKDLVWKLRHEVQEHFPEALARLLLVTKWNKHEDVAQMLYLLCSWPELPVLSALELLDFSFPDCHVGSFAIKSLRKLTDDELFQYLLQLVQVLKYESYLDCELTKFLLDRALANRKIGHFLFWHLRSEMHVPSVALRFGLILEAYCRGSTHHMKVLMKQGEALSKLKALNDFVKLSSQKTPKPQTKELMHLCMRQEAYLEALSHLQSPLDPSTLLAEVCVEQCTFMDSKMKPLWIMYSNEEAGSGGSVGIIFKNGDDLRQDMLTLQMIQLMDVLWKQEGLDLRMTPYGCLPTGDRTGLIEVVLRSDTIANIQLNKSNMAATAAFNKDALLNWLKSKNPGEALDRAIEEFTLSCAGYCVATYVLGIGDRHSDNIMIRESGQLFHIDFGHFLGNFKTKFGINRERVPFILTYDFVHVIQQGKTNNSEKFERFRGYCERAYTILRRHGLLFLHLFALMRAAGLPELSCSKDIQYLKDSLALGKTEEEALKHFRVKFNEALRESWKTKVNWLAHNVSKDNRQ
T2 sequence (P27986 whole entry partner): as the sequence (P27986 whole entry partner) above
T4 sequence (P48736 whole entry): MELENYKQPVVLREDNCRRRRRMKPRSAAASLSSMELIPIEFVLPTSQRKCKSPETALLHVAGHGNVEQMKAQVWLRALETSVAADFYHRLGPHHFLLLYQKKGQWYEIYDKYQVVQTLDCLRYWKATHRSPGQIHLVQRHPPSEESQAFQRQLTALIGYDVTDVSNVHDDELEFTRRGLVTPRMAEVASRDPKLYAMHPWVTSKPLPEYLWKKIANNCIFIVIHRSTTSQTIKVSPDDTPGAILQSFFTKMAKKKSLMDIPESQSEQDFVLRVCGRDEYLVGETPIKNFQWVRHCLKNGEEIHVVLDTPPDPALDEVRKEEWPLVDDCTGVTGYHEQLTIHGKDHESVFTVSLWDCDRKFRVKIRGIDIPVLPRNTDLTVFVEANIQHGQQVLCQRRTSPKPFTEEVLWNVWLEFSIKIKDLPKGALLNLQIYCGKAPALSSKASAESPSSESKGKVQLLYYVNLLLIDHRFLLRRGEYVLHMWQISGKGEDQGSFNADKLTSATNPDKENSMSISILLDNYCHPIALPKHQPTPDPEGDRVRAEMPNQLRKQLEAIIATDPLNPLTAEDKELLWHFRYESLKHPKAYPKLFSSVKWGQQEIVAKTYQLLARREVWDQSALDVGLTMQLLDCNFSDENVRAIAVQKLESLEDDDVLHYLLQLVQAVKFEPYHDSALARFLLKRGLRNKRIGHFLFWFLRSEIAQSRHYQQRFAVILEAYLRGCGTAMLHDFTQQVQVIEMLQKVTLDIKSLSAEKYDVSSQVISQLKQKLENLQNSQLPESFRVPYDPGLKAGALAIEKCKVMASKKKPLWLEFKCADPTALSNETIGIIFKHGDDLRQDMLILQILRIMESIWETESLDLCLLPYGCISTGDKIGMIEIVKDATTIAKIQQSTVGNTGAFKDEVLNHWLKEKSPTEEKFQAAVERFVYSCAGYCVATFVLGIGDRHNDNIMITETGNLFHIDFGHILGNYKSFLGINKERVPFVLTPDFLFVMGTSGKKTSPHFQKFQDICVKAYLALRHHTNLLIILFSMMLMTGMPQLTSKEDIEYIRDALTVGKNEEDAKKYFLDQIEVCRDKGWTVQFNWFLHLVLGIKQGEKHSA
T3 sequence (P42336 whole entry): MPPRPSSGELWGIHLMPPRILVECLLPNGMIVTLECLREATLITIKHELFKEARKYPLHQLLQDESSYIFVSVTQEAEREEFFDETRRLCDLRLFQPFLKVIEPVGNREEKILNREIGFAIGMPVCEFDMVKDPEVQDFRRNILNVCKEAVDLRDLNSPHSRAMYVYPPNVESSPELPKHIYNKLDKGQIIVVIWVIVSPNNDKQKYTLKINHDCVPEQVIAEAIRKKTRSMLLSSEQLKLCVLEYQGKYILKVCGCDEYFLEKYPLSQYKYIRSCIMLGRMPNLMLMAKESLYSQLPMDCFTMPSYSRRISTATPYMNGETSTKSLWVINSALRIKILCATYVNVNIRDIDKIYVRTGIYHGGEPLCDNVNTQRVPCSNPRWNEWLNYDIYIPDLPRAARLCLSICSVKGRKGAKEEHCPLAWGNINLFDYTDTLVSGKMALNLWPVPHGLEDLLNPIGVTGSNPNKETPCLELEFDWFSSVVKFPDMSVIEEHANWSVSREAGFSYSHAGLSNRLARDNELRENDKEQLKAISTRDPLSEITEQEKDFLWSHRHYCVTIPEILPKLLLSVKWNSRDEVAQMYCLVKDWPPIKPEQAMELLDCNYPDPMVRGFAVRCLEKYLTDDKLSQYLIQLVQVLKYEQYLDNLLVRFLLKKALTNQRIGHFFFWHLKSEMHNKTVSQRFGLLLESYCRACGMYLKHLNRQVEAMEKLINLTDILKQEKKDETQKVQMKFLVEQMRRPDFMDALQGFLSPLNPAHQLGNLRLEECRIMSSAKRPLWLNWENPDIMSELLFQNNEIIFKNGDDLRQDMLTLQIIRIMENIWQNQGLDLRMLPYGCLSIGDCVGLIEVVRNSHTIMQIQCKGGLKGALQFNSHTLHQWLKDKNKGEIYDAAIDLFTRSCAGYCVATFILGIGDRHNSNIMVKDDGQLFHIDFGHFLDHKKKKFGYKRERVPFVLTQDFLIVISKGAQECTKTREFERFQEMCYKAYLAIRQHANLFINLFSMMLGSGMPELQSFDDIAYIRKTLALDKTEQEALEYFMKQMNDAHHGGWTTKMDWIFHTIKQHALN
T3 sequence (P27986 whole entry partner): as the sequence (P27986 whole entry partner) above

SMILES | IC50 (PI3Kβ) [nM] | IC50 (PI3Kδ) [nM] | IC50 (PI3Kα) [nM] | IC50 (PI3Kγ) [nM] | IC50 [1] [nM] | IC50 ([1]; Homo sapiens, MCF7, 2 h) [nM]
COc1ncc(-c2ccc3ncn(CC(C)C(=O)O)c(=O)c3c2)cc1NS(=O)(=O)c1ccc(F)cc1Cl (single isomer, unassigned) [R002, reference compound] | 1060 | 122 | 13.6 | 20.4 | 628 | –
CNC(=O)C(C)Cn1cnc2ccc(-c3cnc(C)c(NS(=O)(=O)c4sc(C)nc4C)c3)cc2c1=O (single isomer, unassigned) [WX035] | 158 | 7.3 | 1.57 | 19.6 | – | –
CCC(CC)NC(=O)C(C)Cn1cnc2ccc(-c3cnc(OC)c(NS(=O)(=O)c4ccc(F)cc4Cl)c3)cc2c1=O (single isomer, unassigned) [WX056] | 5080 | 61 | 19.6 | 155 | – | –
CCC(CC)NC(=O)C(C)Cn1cnc2ccc(-c3cnc(OC)c(NS(=O)(=O)c4ccc(F)cc4Cl)c3)cc2c1=O (single isomer, unassigned) [WX057] | 963 | 28.4 | 57.2 | 48.1 | – | –
CNC(=O)C(C)Cn1cnc2ccc(-c3cnc(CO)c(NS(=O)(=O)c4ccc(F)cc4Cl)c3)cc2c1=O (single isomer, unassigned) [WX062] | > 10000 | 538 | 30 | 374 | – | –
CNC(=O)C(C)Cn1cnc2ccc(-c3cnc(CO)c(NS(=O)(=O)c4ccc(F)cc4Cl)c3)cc2c1=O (single isomer, unassigned) [WX063] | 7230 | 336 | 71.4 | 318 | – | –
COc1ncc(-c2ccc3ncn(CC(C)C(=O)NCCF)c(=O)c3c2)cc1NS(=O)(=O)c1ccc(F)cc1Cl (single isomer, unassigned) [WX066] | 181 | 7.78 | 5.26 | 9.25 | – | –
CNC(=O)C(C)Cn1cnc2c(F)cc(-c3cnc(OC)c(NS(=O)(=O)c4ccc(F)cc4Cl)c3)cc2c1=O (single isomer, unassigned) [WX106] | 736 | – | 19.5 | – | 460 | –
CCC(Cn1cnc2ccc(-c3cnc(OC)c(NS(=O)(=O)c4ccc(F)cc4Cl)c3)cc2c1=O)C(=O)NC (single isomer, unassigned) [WX107] | 1850 | – | 18.1 | – | 302 | –
CNC(=O)[C@@H]1CCC[C@H]1Cn1cnc2ccc(-c3cnc(OC)c(NS(=O)(=O)c4ccc(F)cc4Cl)c3)cc2c1=O (single isomer, unassigned) [WX196] | 1770 | – | 41 | – | 395 | –
Cc1ncc(-c2ccc3ncn(CCN(C)C)c(=O)c3c2)cc1NS(=O)(=O)c1ccc(F)cc1Cl [R010, reference compound] | 345 | 45.8 | 34.4 | 421 | – | –
Cc1ncc(-c2ccc3ncn(CCCC(=O)N4CCCC4)c(=O)c3c2)cc1NS(=O)(=O)c1ccc(F)cc1Cl [WX005] | 244 | 7.42 | 4.39 | 49.7 | – | –
Cc1nc(C)c(S(=O)(=O)Nc2cc(-c3ccc4ncn(CCCC(=O)N5CCCC5)c(=O)c4c3)cnc2C)s1 [WX007] | 159 | 1.85 | 1.49 | 29.1 | – | –
CCC(Cn1cnc2ccc(-c3cnc(OC)c(NS(=O)(=O)c4ccc(F)cc4Cl)c3)cc2c1=O)C(N)=O (stereo not drawn) [WX021] | 133 | – | 6.89 | – | – | 52.3

Continued by falling IC50 (PI3Kβ), values first:

IC50 (PI3Kβ) [nM] | IC50 (PI3Kδ) [nM] | IC50 (PI3Kα) [nM] | IC50 (PI3Kγ) [nM] | IC50 [1] [nM] | IC50 ([1]; Homo sapiens, MCF7, 2 h) [nM] | SMILES
2160 | – | 22.8 | – | – | > 1000 | CNC(=O)C(C)Cn1cnc2ccc(-c3cnc(OC(F)(F)F)c(NS(=O)(=O)c4ccc(F)cc4Cl)c3)cc2c1=O (stereo not drawn) [WX127]
832 | – | 25.5 | – | – | 125 | COc1ncc(-c2ccc3ncn(CC(C(N)=O)C(C)C)c(=O)c3c2)cc1NS(=O)(=O)c1ccc(F)cc1Cl (stereo not drawn) [WX022]
554 | 11.6 | 0.71 | 29.9 | – | – | CNC(=O)C(C)Cn1cnc2ccc(-c3cnc(C)c(NS(=O)(=O)c4sc(C)nc4C)c3)cc2c1=O (single isomer, unassigned) [WX034]
415 | – | 13.9 | – | 96.5 | – | CCC(Cn1cnc2ccc(-c3cnc(OC)c(NS(=O)(=O)c4ccc(F)cc4Cl)c3)cc2c1=O)C(=O)NC (single isomer, unassigned) [WX108]
391 | 13.2 | 11.2 | 14.2 | – | – | COc1ncc(-c2ccc3ncn(CC(C)C(=O)NCC(F)(F)F)c(=O)c3c2)cc1NS(=O)(=O)c1ccc(F)cc1Cl (single isomer, unassigned) [WX059]
390 | 29.6 | 4.77 | 68.3 | – | – | CNC(=O)C(C)Cn1cnc2ccc(-c3cnc(OC)c(NS(=O)(=O)c4cc(Cl)c(F)cc4F)c3)cc2c1=O (single isomer, unassigned) [WX095]
365 | 9.15 | 6.8 | 16.4 | – | – | COCCNC(=O)C(C)Cn1cnc2ccc(-c3cnc(OC)c(NS(=O)(=O)c4ccc(F)cc4Cl)c3)cc2c1=O (single isomer, unassigned) [WX064]
216 | 12.4 | 2.84 | 33.7 | – | – | CNC(=O)CCCn1cnc2ccc(-c3cnc(C)c(NS(=O)(=O)c4ccc(F)cc4Cl)c3)cc2c1=O [WX002]
124 | 7.16 | 2.66 | 8.37 | – | – | COc1ncc(-c2ccc3ncn(CC(F)(F)C(N)=O)c(=O)c3c2)cc1NS(=O)(=O)c1ccc(F)cc1Cl [WX041]
88.5 | 4.36 | 6.71 | 44.1 | – | – | CNC(=O)C1(Cn2cnc3ccc(-c4cnc(OC)c(NS(=O)(=O)c5ccc(F)cc5Cl)c4)cc3c2=O)CC1 [WX202]
